Measured values: patent US10253039B2, “Inhibitors of bacterial DNA gyrase with efficacy against gram-negative bacteria” (priority 2014, dated 2019)
Converted amounts (≈) assume the structure as drawn. Like-named read-outs stand apart in the source and are kept apart here.

Columns and labels:
[1] = test system: E. coli BW25113 ΔtolC gyrR isolate GyrA Ser97Pro; assay: MIC against gyramide-resistant mutant; conditions: Escherichia coli, BW25113
Method: (§2) A microdilution method in 96-well plates was used and the MIC protocol established by the Clinical Laboratory Standards Institute was followed. From a growing subculture, a 1:10000 inoculum of each strain in Luria-Bertani media was prepared and aliquoted 100 μL in 4 columns of wells, except for the top row wells, which contained 200 μL of inoculum. […] The liquid in each of wells was mixed with a multi-channel pipet and 100 μL was transferred to the next well and mixed. The 2-fold dilution was continued down the 96-well plate until 100 μL was left, which was discarded. The plates were incubated at 37° C. with shaking for 16-18 hours. The MIC was determined as the lowest concentration that inhibited growth and had no turbidity by visual inspection.

[2] = test system: E. coli BW25113 ΔtolC cipR isolate GyrA Ser83Leu; assay: MIC against ciprofloxacin-resistant mutant; conditions: Escherichia coli, BW25113
Method: as §2

[3] = test system: wild-type E. coli; assay: Killing / inhibition of wild-type E. coli; type: cell-based, Escherichia coli
Source text: The compounds of the invention are observed to inhibit wild-type E. coli.

[4] = test system: E. coli BW25113 ΔtolC cipR isolate GyrA Asp87Tyr; assay: MIC against ciprofloxacin-resistant mutant; conditions: Escherichia coli, BW25113
Method: as §2

[5] = test system: Staphylococcus aureus; assay: MIC, microdilution in 96-well plates
[6] = molecular target: E. coli DNA gyrase (Escherichia coli, UniProt P0AES4+P0AES6); assay: DNA gyrase gel shift assay; conditions: IC50 against E. coli DNA gyrase, WT Gyrase
[7] = test system: Pseudomonas aeruginosa; assay: MIC, microdilution in 96-well plates; type: cell-based; conditions: read-out: MIC
In short: (§1)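 Growth inhibition was scored after overnight culture (16-18 hours, 37° C., shaking) by looking for turbidity; the first clear well in a triplicate 2-fold compound series defined the MIC. Strains were inoculated at 1:10000 into LB.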

[8] = test system: Acinetobacter baumannii; assay: MIC, microdilution in 96-well plates; type: cell-based; conditions: read-out: MIC
In short: as §1

[9] = test system: Enterobacter aerogenes; assay: MIC, microdilution in 96-well plates; type: cell-based; conditions: Klebsiella aerogenes, Enterobacter aerogenes, read-out: MIC
In short: as §1

[10] = test system: E. coli BW25113; assay: MIC, microdilution in 96-well plates; type: cell-based; conditions: Escherichia coli, BW25113, E. coli BW25113, read-out: MIC
In short: as §1

[11] = test system: Edwardsiella tarda; assay: MIC, microdilution in 96-well plates; type: cell-based; conditions: read-out: MIC
In short: as §1

[12] = Table 7, separate set of experiments

Sequence of E. coli DNA gyrase (P0AES4 whole entry, one chain of several): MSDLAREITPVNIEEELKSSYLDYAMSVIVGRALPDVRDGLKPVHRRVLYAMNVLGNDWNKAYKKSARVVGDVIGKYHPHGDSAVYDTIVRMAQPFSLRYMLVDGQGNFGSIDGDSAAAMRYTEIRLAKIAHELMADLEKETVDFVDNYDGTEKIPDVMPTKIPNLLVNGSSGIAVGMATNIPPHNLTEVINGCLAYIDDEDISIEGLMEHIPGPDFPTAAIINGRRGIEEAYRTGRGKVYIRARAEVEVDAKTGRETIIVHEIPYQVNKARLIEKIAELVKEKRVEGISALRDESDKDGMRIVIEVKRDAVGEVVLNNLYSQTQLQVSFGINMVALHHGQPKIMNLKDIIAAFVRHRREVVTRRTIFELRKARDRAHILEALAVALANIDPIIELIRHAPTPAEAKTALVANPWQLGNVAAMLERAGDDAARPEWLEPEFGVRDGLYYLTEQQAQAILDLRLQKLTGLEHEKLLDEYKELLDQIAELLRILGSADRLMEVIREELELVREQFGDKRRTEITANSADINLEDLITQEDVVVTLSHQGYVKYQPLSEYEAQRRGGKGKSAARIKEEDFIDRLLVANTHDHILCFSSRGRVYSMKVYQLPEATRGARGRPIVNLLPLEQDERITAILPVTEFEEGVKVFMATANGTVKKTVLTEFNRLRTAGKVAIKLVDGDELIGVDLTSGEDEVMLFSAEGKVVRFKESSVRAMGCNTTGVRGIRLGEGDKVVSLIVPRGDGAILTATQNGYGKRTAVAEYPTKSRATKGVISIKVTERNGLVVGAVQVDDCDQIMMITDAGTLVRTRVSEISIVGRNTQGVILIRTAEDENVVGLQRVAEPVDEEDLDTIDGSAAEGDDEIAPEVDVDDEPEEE

N#Cc1cccc(S(=O)(=O)N[C@@H]2CCN(Cc3ccc(-c4ccccc4)cc3)C2)c1 [Gyramide C2, gyramide C2]
MIC [1]: > 25.6 µM
MIC [2]: 0.4 µM (≈ 0.167 µg/mL)
concentration observed to kill wild-type E. coli [3]: 20 µM
MIC [4]: 0.8 µM (≈ 0.334 µg/mL)
MIC ([5]; with PAβN (60 μM)): 40 µM (≈ 16.7 µg/mL)
MIC ([5]; without PAβN): 160 µM (≈ 66.8 µg/mL)
IC50 ([6]; Average of 3 trials): 122 ± 39.2 nM
IC50 ([6]; Trial 1): 84.5 nM
IC50 ([6]; Trial 2): 119 nM
IC50 ([6]; Trial 3): 163 nM
MIC [7, 12]: > 16 µg/mL
MIC ([7]; with PAβN (60 μM)): 20 µM
MIC ([7]; without PAβN): > 640 µM
MIC [8, 12]: > 16 µg/mL
MIC ([8]; with PAβN (60 μM)): 40 µM
MIC ([8]; without PAβN): > 640 µM
MIC [9, 12]: > 16 µg/mL
MIC ([9]; with PAβN (60 μM)): 10 µM
MIC ([9]; without PAβN): > 640 µM
MIC [10, 12]: 16 µg/mL
MIC ([10]; without PAβN): 20 µM
MIC [11, 12]: 16 µg/mL
MIC ([11]; with PAβN (60 μM)): 20 µM
MIC ([11]; without PAβN): > 640 µM
